Test results from paper PMC11172460 (International Journal of Molecular Sciences, 2024).

Legend:
Type in all cases: in vitro ADME
[1] = Hydrolysis kinetics in human whole blood
Procedure: Kinetic analysis of Fer-Ger was performed by incubating the compound at 37 °C in heparinized whole blood obtained from healthy human volunteers or from male Wistar rats weighing 200–250 g. In particular, appropriate amounts of stock solution in DMSO were added to a volume of 3 mL of whole blood in order to obtain the final concentration of 30 µM (9.92 µg/mL). Samples (100 μL) were withdrawn at defined time intervals and immediately treated. Specifically, they were firstly added to ice-cold water (500 µL); then, sulfosalicylic acid (10%, 50 µL) and the internal standard (100 μM carbazole dissolved in a mixture of MeOH and H2O 50:50 v/v, 50 µL) were added; finally, 1 mL of H2O-saturated ethyl acetate was used twice as extraction solvent. The samples were centrifuged (13,500× g for 10 min) and the organic phase was evaporated under a nitrogen stream. The residue was re-suspended in a mixture of H2O and CH3CN (50:50 v/v, 150 µL) and centrifuged (16,000× g for 5 min). […]
The Fer-Ger degradation in whole blood or homogenates was analyzed as exponential decay plots of its concentrations versus incubation time, and the related half-life values were obtained from the linear regression of the corresponding semi-logarithmic plots. The quality of the fits was evaluated by considering the correlation coefficients (r) and p values. […]
Fer-Ger and its hydrolysis product, Ger, were quantified by HPLC. […]

[2] = Hydrolysis in rat liver homogenates of free or SLM-encapsulated Fer-Ger
Procedure: Since SLMs were suspended in the medium, it was difficult to withdraw several homogeneous samples, and consequently, stability was assessed by a single sampling after 10 min of incubation. Dichloromethane (1 mL) was added, and 250 μL was withdrawn from the samples and quenched in 500 μL of ice-cold ethanol added with 100 μL of internal standard (100 μM carbazole dissolved in ethanol). After 5 min of centrifugation at 16,000× g, 600 μL aliquots were reduced to dryness under a nitrogen stream. […] The same procedure was adopted for free Fer-Ger by adding appropriate amounts of stock solution in DMSO to a volume of 3 mL of rat liver homogenates in order to obtain the final concentration of 30 µM (9.92 µg/mL). In this case, the Fer-Ger hydrolysis was analyzed both in the absence or in the presence of unloaded Ts SLMs or Ts-glu SLMs, whose amounts were equivalent to those of their parent-loaded FG Ts SLMs or FG Ts-glu SLMs, respectively. All the values obtained are the means of four independent experiments.

[3] = Hydrolysis kinetics in rat whole blood
Procedure: Kinetic analysis of Fer-Ger was performed by incubating the compound at 37 °C in heparinized whole blood obtained from healthy human volunteers or from male Wistar rats weighing 200–250 g. In particular, appropriate amounts of stock solution in DMSO were added to a volume of 3 mL of whole blood in order to obtain the final concentration of 30 µM (9.92 µg/mL). Samples (100 μL) were withdrawn at defined time intervals and immediately treated. Specifically, they were firstly added to ice-cold water (500 µL); then, sulfosalicylic acid (10%, 50 µL) and the internal standard (100 μM carbazole dissolved in a mixture of MeOH and H2O 50:50 v/v, 50 µL) were added; finally, 1 mL of H2O-saturated ethyl acetate was used twice as extraction solvent. The samples were centrifuged (13,500× g for 10 min) and the organic phase was evaporated under a nitrogen stream. The residue was re-suspended in a mixture of H2O and CH3CN (50:50 v/v, 150 µL) and centrifuged (16,000× g for 5 min). […] All the values were derived from the mean of three independent incubation experiments.
The Fer-Ger degradation in whole blood or homogenates was analyzed as exponential decay plots of its concentrations versus incubation time, and the related half-life values were obtained from the linear regression of the corresponding semi-logarithmic plots. The quality of the fits was evaluated by considering the correlation coefficients (r) and p values. The computer program GraphPad Prism 7 (GraphPad, San Diego, CA, USA) allowed to perform the calculations.
Fer-Ger and its hydrolysis product, Ger, were quantified by HPLC. The chromatographic apparatus consisted of a modular system (model LC-40D) pump and DAD detector (model SPD-M40, Shimadzu, Kyoto, Japan) and an injection valve with a 20 μL sample loop (model 7725; Rheodyne, IDEX, Torrance, CA, USA).

remaining amount of Fer-Ger ([1]; after three hours of incubation in human whole blood, % of overall incubated amount): about 50%
half-life at 30 µM ([1]; heparinized whole blood, human whole blood, 37 °C, 30 µM, pseudo-first order kinetic, read-out: half-life (t1/2) of hydrolysis): 3.23 ± 0.349 h
hydrolysis rate in the presence of unloaded SLMs ([2]; free Fer-Ger in rat liver homogenates with unloaded SLMs): substantially unaffected
prodrug hydrolyzed ([2]; free solubilized prodrug, 10 min incubation in rat liver homogenates, about 30 μM): about 90%
half-life at 30 µM ([3]; male, Wistar, heparinized whole blood, rat whole blood, 37 °C, 30 µM, pseudo-first-order kinetic, read-out: half-life (t1/2) of hydrolysis): 0.336 ± 0.0125 h
time to almost complete degradation ([3]; rat whole blood): ≤ 2 h
hydrolysis rate relative to human whole blood ([3]; rat whole blood vs human whole blood): about 10 times faster
Structure (SMILES): COc1cc(/C=C/C(=O)OC/C=C(\C)CCC=C(C)C)ccc1O [Fer-Ger, Geranyl ferulate]
